Measured values as given in PMC9949698, “Visible-Light-Controlled Histone Deacetylase Inhibitors for Targeted Cancer Therapy” (Journal of Medicinal Chemistry, 2023).
Read-outs that look alike come from different tables or passages of the source.

Legend:
human recombinant HDAC1 = target: T1, human recombinant HDAC1 (Homo sapiens, UniProt Q13547); experiment: Fluorogenic assay with human recombinant HDAC1, dark or illumination; type: biochemical; settings: for relative activity of cis and trans forms: dark vs light, in words
T1 construct: purchased BPS Bioscience
Method: To study the inhibition of HDAC enzymes by the compounds, we used a fluorogenic assay with human recombinant HDAC1.[32] The enzyme was incubated with an acetylated substrate and each inhibitor for 1 h at room temperature, under either dark or light conditions. We opted for illumination throughout the incubation period to maintain the maximum proportion of cis under light conditions. […] Then, the deacetylated substrate generated a fluorescent coumarin after incubation of the mixture with trypsin at 37 °C for 20 min.
Stock solutions of the compounds were diluted to 1 mM in DMSO and then heated to 60 or 80 °C to obtain solutions with the maximum amount of the trans isomer (dark). […] The 1 mM solutions were then serially diluted with HDAC buffer to 10 times the desired concentration, maintaining DMSO at 10%.
In control wells without the compound, inhibitor, or enzyme, HDAC buffer was added instead. […] Then, 50 μL of the stop solution was added and the plates were incubated at 37 °C for 20 min in the dark. Fluorescence was measured at a λem of 460 nm and a λex of 380 nm. Enzyme activity is expressed as a percentage with respect to the nontreated cells, after subtracting the blank (well with no enzyme and no compound).

HeLa cells = experiment: HeLa cell viability, MTS assay, dark or preillumination; type: cell-based; settings: for IC50: Homo sapiens, HeLa; for IC50(dark)/IC50(light): Table 5; for activity under dark and illumination conditions: in words
Method: We then proceeded to evaluate the effect of the compounds in a viability assay against HeLa cells.
HeLa, MCF7, and HT29 cells were maintained in adherent cultures in DMEM supplemented with 10% FBS. KG1 cells were maintained in a suspension culture in IMDM supplemented with 20% FBS.
Stock solutions of the compounds were heated to 60 or 80 °C to obtain solutions with the maximum amount of the trans isomer (dark). […] The solutions were then serially diluted with DMEM to give 20 times the desired final concentration, maintaining DMSO at 10%.
Cells were seeded in 96-well black flat bottom plates with a clear bottom at a density of 5 × 10^3 cells/well (HeLa) or 1 × 10^4 cells/well (MCF7, HT29, and KG1), in a volume of 95 μL.
Viability of HeLa, MCF7, and […] cells was determined with a CellTiter 96 assay (Promega), according to the manufacturer’s instructions. Briefly, 20 μL of CellTiter 96 reagent was added to each well, the plates were incubated at 37 °C for 2 h, and the absorbance at 490 nm was recorded. Viability is expressed as a percentage with respect to the nontreated cells.

[1] = UV–vis spectra and optimal isomerization wavelengths; type: physicochemical; settings: for λcis (optimal wavelength trans to cis) / λtrans (optimal wavelength cis to trans): UV–vis at 25–50 μM in DMSO, Teleopto plates (Table 1)
Method: Ultraviolet–visible (UV–vis) spectra were recorded using a Tecan Spark 20M Multimode Microplate reader. Samples (200 μL of compound solution/well) were prepared at […] in DMSO. Samples were measured between 300 and 800 nm with 2 nm fixed intervals in 96-well transparent plates. Illumination at different wavelengths was performed for 2 min using 96-well LED array plates (LEDA Teleopto) placed below the samples. […] Potencies were measured using a Thorlabs PM100D power energy meter connected with a standard photodiode power sensor (S120VC).

[2] = E/Z composition under light or temperature conditions by HPLC; type: physicochemical
[3] = continuous illumination 550 nm (Table 4), read-out: IC50 light
[4] = dark (Table 4), read-out: IC50 dark
[5] = dark, 48 h, read-out: IC50 dark (concentration that reduces cell viability by half)
[6] = UV–vis spectra at 25–100 μM in DMSO (Table 3)
[7] = HPLC at isosbestic point (290–336 nm), 100 μM in DMSO after illumination with λcis (Table 3)
[8] = HPLC at isosbestic point (290–336 nm), 100 μM in DMSO after illumination with λtrans (Table 3)
[9] = supplementary CSV, read-out: HDAC1 IC50 dark
[10] = supplementary CSV, read-out: HDAC1 IC50 light
[11] = dark vs 365 or 380 nm (Table 2), fold
[12] = dark, 1 h at room temperature (Table 2), read-out: IC50 dark
[13] = illumination 365 or 380 nm, 1 h at room temperature (Table 2), read-out: IC50 light
[14] = UV–vis spectra at 25–50 μM in DMSO (Table 1)
[15] = HPLC at isosbestic point (310–338 nm), 100 μM in DMSO after illumination with λcis (Table 1)
[16] = HPLC at isosbestic point (310–338 nm), 100 μM in DMSO after illumination with λtrans (Table 1)
[17] = preillumination 380 nm, 48 h, read-out: IC50 light (concentration that reduces cell viability by half)
[18] = supplementary CSV, read-out: HeLa MTS IC50 light

T1 sequence (Q13547 whole entry): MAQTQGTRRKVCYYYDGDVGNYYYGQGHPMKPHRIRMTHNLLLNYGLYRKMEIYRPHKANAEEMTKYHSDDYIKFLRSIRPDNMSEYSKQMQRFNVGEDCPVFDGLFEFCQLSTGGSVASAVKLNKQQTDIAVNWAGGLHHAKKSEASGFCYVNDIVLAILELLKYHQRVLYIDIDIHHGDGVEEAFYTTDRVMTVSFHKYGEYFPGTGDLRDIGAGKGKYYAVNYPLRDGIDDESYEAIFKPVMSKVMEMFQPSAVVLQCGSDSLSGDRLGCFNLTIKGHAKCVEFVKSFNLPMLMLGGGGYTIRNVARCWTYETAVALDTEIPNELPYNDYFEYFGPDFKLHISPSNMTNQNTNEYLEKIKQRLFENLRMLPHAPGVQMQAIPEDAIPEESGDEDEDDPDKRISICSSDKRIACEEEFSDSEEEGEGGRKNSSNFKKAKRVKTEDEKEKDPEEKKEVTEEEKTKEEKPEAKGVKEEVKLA

IC50(dark)/IC50(light) (human recombinant HDAC1; Table 4) | IC50 (human recombinant HDAC1; [4]) [µM] | λcis [1, 6] [nm] | λmax cis [1, 6] [nm] | λmax trans [1, 6] [nm] | λtrans [1, 6] [nm] | % cis at λcis [2, 7] [%] | % trans at λtrans [2, 8] [%] | λcis (optimal wavelength trans to cis) [1] [nm] | λmax trans [1, 14] [nm] | Compound | also measured
2.6 | 0.14 | 550 | 438 | 358 | 455 | 72 | 83 |  |  | COc1cc(F)c(/N=N/c2c(F)cc(/C=C/C(=O)NO)cc2F)c(F)c1 [Compound 39, (E)-3-(4-((E)-(2,6-Difluoro-4-methoxyphenyl)diazenyl)-3,5-difluorophenyl)-N-hydroxyacrylamide] | IC50 (human recombinant HDAC1; [3]): 0.054 µM; IC50 (HeLa cells; [5]): 6.7 µM; IC50 (HeLa cells; preillumination 550 nm, 48 h, read-out: IC50 light (concentration that reduces cell viability by half)): 13 µM; IC50(dark)/IC50(light) (HeLa cells): 0.52
 |  | 550 | 452 | 336 | 455 | 46 | 84 |  |  | COc1cc(Cl)c(/N=N/c2c(Cl)cc(C(=O)Nc3ccccc3N)cc2Cl)c(Cl)c1 [Compound 38b, (E)-N-(2-Aminophenyl)-3,5-dichloro-4-((2,6-dichloro-4-methoxyphenyl)diazenyl)benzamide] | 
 | > 10 | 380 | 464 | 396 | 455 | 64 | 62 |  |  | COc1ccc(/N=N/c2ccc(/C=C/C(=O)Nc3ccccc3N)cc2Cl)c(Cl)c1 [Compound 32e, (E)-N-(2-Aminophenyl)-3-(3-chloro-4-((E)-(2-chloro-4-methoxyphenyl)diazenyl)phenyl)acrylamide] | IC50 (human recombinant HDAC1; continuous illumination 380 nm (Table 4), read-out: IC50 light): > 10 µM; IC50 (human recombinant HDAC1; [9]): > 10 µM; IC50 (human recombinant HDAC1; [10]): > 10 µM
 |  |  |  |  |  |  |  | 380 | 354 | COc1ccc(/N=N/c2ccc(CCC(=O)Nc3ccccc3N)cc2)cc1 [Compound 21, (E)-N-(2-Aminophenyl)-3-(4-((4-methoxyphenyl)diazenyl)phenyl)propanamide] | IC50(dark)/IC50(light) (human recombinant HDAC1; [11]): >2.9; relative activity of cis and trans forms (human recombinant HDAC1): active only in the cis form; IC50 (human recombinant HDAC1; [12]): > 10 µM; IC50 (human recombinant HDAC1; [13]): 3.4 µM; λtrans (optimal wavelength cis to trans) [1]: 550 nm; % cis at λcis [2, 15]: 87%; % trans at λtrans [2, 16]: 84%
 |  |  |  |  |  |  |  | 380 | 364 | COc1ccc(/N=N/c2ccc(C(=O)Nc3ccccc3N)cc2)cc1 [Compound 18, (E)-N-(2-Aminophenyl)-4-((4-methoxyphenyl)diazenyl)benzamide] | IC50(dark)/IC50(light) (human recombinant HDAC1; [11]): 6; IC50 (human recombinant HDAC1; [12]): 1.2 µM; IC50 (human recombinant HDAC1; [13]): 0.2 µM; IC50 (HeLa cells; [17]): ~19 µM; IC50 (HeLa cells; [18]): 19 µM; IC50(dark)/IC50(light) (HeLa cells): >5.3; λtrans (optimal wavelength cis to trans) [1]: 550 nm; % cis at λcis [2, 15]: 82%; % trans at λtrans [2, 16]: 79%
≈22 | ~10 | 380 | 448 | 388 | 550 | 67 | 59 |  |  | COc1ccc(/N=N/c2ccc(/C=C/C(=O)Nc3ccccc3N)cc2F)c(F)c1 [Compound 32d, (E)-N-(2-Aminophenyl)-3-(3-fluoro-4-((E)-(2-fluoro-4-methoxyphenyl)diazenyl)phenyl)acrylamide] | IC50 (human recombinant HDAC1; [9]): 10 µM
>8.3 |  | 420 |  | 430 | 550 |  |  |  |  | CN(C)c1cc(F)c(/N=N/c2c(F)cc(/C=C/C(=O)Nc3ccccc3N)cc2F)c(F)c1 [Compound 33a, (E)-N-(2-Aminophenyl)-3-(4-((E)-(4-(dimethylamino)-2,6-difluorophenyl)diazenyl)-3,5-difluorophenyl)acrylamide] | activity at the highest tested concentration in the dark (human recombinant HDAC1; 10 μM, dark): no or little activity; IC50 under illumination, in words (human recombinant HDAC1; continuous illumination): low micromolar range; activity under dark and illumination conditions (HeLa cells): inactive
 |  |  |  |  |  |  |  | 470 | 462 | CN(C)c1ccc(/N=N/c2ccc(/C=C/C(=O)Nc3ccccc3N)cc2)cc1 [Compound 12, (E)-N-(2-Aminophenyl)-3-(4-((E)-(4-(dimethylamino)phenyl)diazenyl)phenyl)acrylamide] | 
 |  | 550 | 452 | 338 | 455 | 45 | 88 |  |  | COc1cc(Cl)c(/N=N/c2c(Cl)cc(/C=C/C(=O)Nc3ccccc3N)cc2Cl)c(Cl)c1 [Compound 32b, (E)-N-(2-Aminophenyl)-3-(3,5-dichloro-4-((E)-(2,6-dichloro-4-methoxyphenyl)diazenyl)phenyl)acrylamide] | IC50 (human recombinant HDAC1; [3]): ~10 µM; IC50 (human recombinant HDAC1; [10]): 10 µM
>2 | > 10 | 420 |  | 412 | 550 |  |  |  |  | CN(C)c1cc(Cl)c(/N=N/c2c(Cl)cc(/C=C/C(=O)Nc3ccccc3N)cc2Cl)c(Cl)c1 [Compound 33b, (E)-N-(2-Aminophenyl)-3-(3,5-dichloro-4-((E)-(2,6-dichloro-4-(dimethylamino)phenyl)diazenyl)phenyl)acrylamide] | activity under dark and illumination conditions (HeLa cells): inactive
 |  |  |  |  |  |  |  | 380 | 360 | COc1ccc(/N=N/c2ccc(C(=O)NO)cc2)cc1 [Compound 17, (E)-N-Hydroxy-4-((4-methoxyphenyl)diazenyl)benzamide] | IC50(dark)/IC50(light) (human recombinant HDAC1; [11]): 0.14; relative activity of cis and trans forms (human recombinant HDAC1): more active in the trans form than in the cis form; IC50 (human recombinant HDAC1; [12]): 0.42 µM; IC50 (human recombinant HDAC1; [13]): 2.9 µM; IC50 (HeLa cells; [5]): ~25 µM; IC50 (HeLa cells; [17]): ~25 µM; IC50 (HeLa cells; supplementary CSV, read-out: HeLa MTS IC50 dark): 25 µM; IC50 (HeLa cells; [18]): 25 µM; IC50(dark)/IC50(light) (HeLa cells): ≈1; λtrans (optimal wavelength cis to trans) [1]: 550 nm; % cis at λcis [2, 15]: 84%; % trans at λtrans [2, 16]: 92%
 |  |  |  |  |  |  |  |  | 446 | CN(C)c1ccc(/N=N/c2ccc(C(=O)NO)cc2)cc1 [Compound 19, (E)-4-((4-(Dimethylamino)phenyl)diazenyl)-N-hydroxybenzamide] | 
